Data reported in ChEMBL document CHEMBL1201862, “PubChem BioAssay data set” (2004).
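Growth conditions: 96-well plates. Treatment: test compound, 48 hours, 5 concentrations. Analysis: linear interpolation between bracketing concentrations; unreached endpoints set to highest concentration. GI50 marks 50% less growth.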 The source made the active and inactive calls. Cut-off read from the data, not from the text of the source: active = GI50 up to about 1.1 µM and inactive = higher.

Tests used:
Experiment in all cases: inhibition of tumour cell growth, NCI panel, 48 h
SNB-78 = tested on: SNB-78
HOP-18 = tested on: HOP-18
M19-MEL = tested on: M19-MEL
DMS-273 = tested on: DMS-273
LXFL 529 = tested on: LXFL 529
DMS-114 = tested on: DMS-114
RXF 631 = tested on: RXF 631
XF498 = tested on: XF498
BT-549 = tested on: BT-549

## COc1ccc2c(c1)[n+]([O-])c(C(=O)C/C(=N/NC(=O)C[N+](C)(C)C)C(=O)Nc1cccc(C)c1C)c(C)[n+]2[O-]
SNB-78
  GI50: > 100 µM (inactive)
HOP-18
  GI50: > 100 µM (inactive)
M19-MEL
  GI50: > 100 µM (inactive)
DMS-273
  GI50: > 100 µM (inactive)
LXFL 529
  GI50: > 100 µM (inactive)
DMS-114
  GI50: > 100 µM (inactive)
RXF 631
  GI50: > 100 µM (inactive)

## CCCCCCCCCCCCCC(=O)OCC1OC(n2cc(F)c(=O)[nH]c2=O)C(NC(=O)OCc2ccccc2)C(OC(=O)CCCCCCCCCCCCC)C1O (stereo not drawn)
SNB-78
  GI50: > 100 µM (inactive)
XF498
  GI50: > 100 µM (inactive)
HOP-18
  GI50: > 100 µM (inactive)
M19-MEL
  GI50: > 100 µM (inactive)
DMS-273
  GI50: > 100 µM (inactive)
LXFL 529
  GI50: > 100 µM (inactive)
DMS-114
  GI50: > 100 µM (inactive)
RXF 631
  GI50: > 100 µM (inactive)

## Nc1nc2c(ncn2C2OC(CO)C(O)C2O)c(=O)o1 (stereo not drawn)
SNB-78
  GI50: > 100 µM (inactive)
XF498
  GI50: > 100 µM (inactive)
HOP-18
  GI50: > 100 µM (inactive)
M19-MEL
  GI50: > 100 µM (inactive)
DMS-273
  GI50: 22.5 µM (inactive)
LXFL 529
  GI50: > 100 µM (inactive)
DMS-114
  GI50: 67.3 µM (inactive)
RXF 631
  GI50: > 100 µM (inactive)

## Cc1ccc(C)c(NC(=O)CC/C(=N\NC(=O)C(N)=O)C(C)C(=O)c2ccc(O)cc2)c1 (stereo not drawn)
SNB-78
  GI50: > 100 µM (inactive)
HOP-18
  GI50: > 100 µM (inactive)
M19-MEL
  GI50: > 100 µM (inactive)
LXFL 529
  GI50: > 100 µM (inactive)
DMS-114
  GI50: > 100 µM (inactive)
RXF 631
  GI50: > 100 µM (inactive)

## CCCCCCCCCCCCC(O)C1CCC(C(O)CCCCC(O)CCCCCC2CC(CC(C)=O)C(=O)O2)O1 (stereo not drawn)
SNB-78
  GI50: 12.5 µM (inactive)
XF498
  GI50: 1.82 µM (inactive)
HOP-18
  GI50: 11.3 µM (inactive)
M19-MEL
  GI50: 2.45 µM (inactive)
DMS-273
  GI50: 2.21 µM (inactive)
LXFL 529
  GI50: 2.81 µM (inactive)
BT-549
  GI50: 2.79 µM (inactive)
DMS-114
  GI50: < 0.01 µM (active)
RXF 631
  GI50: 3.17 µM (inactive)

## COc1ccc(-c2[nH]c3ccccc3c2CCNS(=O)(=O)c2ccc(C)cc2)cc1
SNB-78
  GI50: > 10 µM (inactive)
XF498
  GI50: > 8.83 µM (inactive)
HOP-18
  GI50: > 7.4 µM (inactive)
M19-MEL
  GI50: > 8.39 µM (inactive)
DMS-273
  GI50: 7.48 µM (inactive)
LXFL 529
  GI50: > 10 µM (inactive)
DMS-114
  GI50: > 9.55 µM (inactive)
RXF 631
  GI50: > 8.49 µM (inactive)

## CCc1ccccc1NC(=O)C(=O)C(C(=O)c1ccc(OC)cc1)c1ccc(OC)cc1 (stereo not drawn)
SNB-78
  GI50: > 100 µM (inactive)
XF498
  GI50: > 100 µM (inactive)
HOP-18
  GI50: > 100 µM (inactive)
DMS-273
  GI50: > 100 µM (inactive)
LXFL 529
  GI50: > 100 µM (inactive)
DMS-114
  GI50: > 100 µM (inactive)
RXF 631
  GI50: > 100 µM (inactive)

## CCCCCCCCCCCCCCCCCC[N+](C)(C)Cc1ccc(C[N+](C)(C)CCCCCCCCCCCCCCCCCC)cc1
SNB-78
  GI50: 18.8 µM (inactive)
HOP-18
  GI50: 13 µM (inactive)
M19-MEL
  GI50: 16.9 µM (inactive)
DMS-273
  GI50: 16.1 µM (inactive)
LXFL 529
  GI50: 2.51 µM (inactive)
DMS-114
  GI50: 9.46 µM (inactive)
RXF 631
  GI50: 20.9 µM (inactive)

## O=P(O)(OCC(O)O)OCC(O)O
SNB-78
  GI50: > 100 µM (inactive)
XF498
  GI50: > 100 µM (inactive)
HOP-18
  GI50: 41.4 µM (inactive)
M19-MEL
  GI50: > 100 µM (inactive)
DMS-273
  GI50: > 100 µM (inactive)
LXFL 529
  GI50: > 100 µM (inactive)
DMS-114
  GI50: > 100 µM (inactive)
RXF 631
  GI50: > 100 µM (inactive)
